Source: US20220389515A1, “USE OF BIOMARKERS TO PREDICT CLINICAL SENSITIVITY TO 2-(4-CHLOROPHENYL)-N-((2-(2,6-DIOXOPIPERIDIN-3-YL)-1-OXOISOINDOLIN-5-YL)METHYL)-2,2-DIFLUOROACETAMIDE” (priority 2019, published 2022)

Assays:
[1] = relative humidity increased from about 0% to about 90% RH; cited from earlier work
GSPT1 = molecular target: T1, GSPT1 (Homo sapiens, UniProt P15170); assay: Immunoblot analysis of Compound D-induced GSPT1 degradation in AML cells; format: cell-based; conditions: U937 parental, TSC1-/- and TSC2-/- cells
T1 construct: endogenous in cells; host or cells: KG-1 (TMT proteomics); KG1, U937 / U937-Cas9, MOLM-13, OCI-AML2 (immunoblots)
T1 sequence (P15170 1-637 isoform P15170-3): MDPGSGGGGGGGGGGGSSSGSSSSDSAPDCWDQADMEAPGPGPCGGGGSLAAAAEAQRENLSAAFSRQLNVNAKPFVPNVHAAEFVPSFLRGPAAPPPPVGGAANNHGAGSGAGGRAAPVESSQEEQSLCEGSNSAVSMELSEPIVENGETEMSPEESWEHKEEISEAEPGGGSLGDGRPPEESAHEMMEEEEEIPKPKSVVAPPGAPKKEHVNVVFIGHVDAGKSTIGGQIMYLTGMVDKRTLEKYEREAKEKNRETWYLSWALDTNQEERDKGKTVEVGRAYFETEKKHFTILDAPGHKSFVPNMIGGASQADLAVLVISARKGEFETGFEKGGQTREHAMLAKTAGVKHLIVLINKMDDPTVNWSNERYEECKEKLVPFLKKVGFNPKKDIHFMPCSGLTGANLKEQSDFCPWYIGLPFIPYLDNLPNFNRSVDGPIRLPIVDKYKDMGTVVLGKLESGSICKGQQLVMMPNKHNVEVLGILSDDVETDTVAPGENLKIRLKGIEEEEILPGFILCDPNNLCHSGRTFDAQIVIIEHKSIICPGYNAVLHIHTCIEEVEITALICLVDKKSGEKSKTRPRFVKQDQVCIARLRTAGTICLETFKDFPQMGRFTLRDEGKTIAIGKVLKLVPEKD
T1 sequence (Q96SW2 whole entry partner): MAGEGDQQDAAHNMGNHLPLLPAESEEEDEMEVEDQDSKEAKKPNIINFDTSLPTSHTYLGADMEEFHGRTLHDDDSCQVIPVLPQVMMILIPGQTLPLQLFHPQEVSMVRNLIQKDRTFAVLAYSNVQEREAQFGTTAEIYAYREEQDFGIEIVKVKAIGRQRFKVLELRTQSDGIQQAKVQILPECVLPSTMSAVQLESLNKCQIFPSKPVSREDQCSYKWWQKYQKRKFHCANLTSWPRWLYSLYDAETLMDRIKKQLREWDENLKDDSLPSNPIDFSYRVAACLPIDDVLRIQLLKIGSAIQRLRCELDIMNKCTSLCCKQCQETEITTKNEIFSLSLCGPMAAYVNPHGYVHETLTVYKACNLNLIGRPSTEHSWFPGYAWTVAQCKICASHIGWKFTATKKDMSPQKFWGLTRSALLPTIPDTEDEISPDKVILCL
T1 sequence (Q16531 2-1140 partner): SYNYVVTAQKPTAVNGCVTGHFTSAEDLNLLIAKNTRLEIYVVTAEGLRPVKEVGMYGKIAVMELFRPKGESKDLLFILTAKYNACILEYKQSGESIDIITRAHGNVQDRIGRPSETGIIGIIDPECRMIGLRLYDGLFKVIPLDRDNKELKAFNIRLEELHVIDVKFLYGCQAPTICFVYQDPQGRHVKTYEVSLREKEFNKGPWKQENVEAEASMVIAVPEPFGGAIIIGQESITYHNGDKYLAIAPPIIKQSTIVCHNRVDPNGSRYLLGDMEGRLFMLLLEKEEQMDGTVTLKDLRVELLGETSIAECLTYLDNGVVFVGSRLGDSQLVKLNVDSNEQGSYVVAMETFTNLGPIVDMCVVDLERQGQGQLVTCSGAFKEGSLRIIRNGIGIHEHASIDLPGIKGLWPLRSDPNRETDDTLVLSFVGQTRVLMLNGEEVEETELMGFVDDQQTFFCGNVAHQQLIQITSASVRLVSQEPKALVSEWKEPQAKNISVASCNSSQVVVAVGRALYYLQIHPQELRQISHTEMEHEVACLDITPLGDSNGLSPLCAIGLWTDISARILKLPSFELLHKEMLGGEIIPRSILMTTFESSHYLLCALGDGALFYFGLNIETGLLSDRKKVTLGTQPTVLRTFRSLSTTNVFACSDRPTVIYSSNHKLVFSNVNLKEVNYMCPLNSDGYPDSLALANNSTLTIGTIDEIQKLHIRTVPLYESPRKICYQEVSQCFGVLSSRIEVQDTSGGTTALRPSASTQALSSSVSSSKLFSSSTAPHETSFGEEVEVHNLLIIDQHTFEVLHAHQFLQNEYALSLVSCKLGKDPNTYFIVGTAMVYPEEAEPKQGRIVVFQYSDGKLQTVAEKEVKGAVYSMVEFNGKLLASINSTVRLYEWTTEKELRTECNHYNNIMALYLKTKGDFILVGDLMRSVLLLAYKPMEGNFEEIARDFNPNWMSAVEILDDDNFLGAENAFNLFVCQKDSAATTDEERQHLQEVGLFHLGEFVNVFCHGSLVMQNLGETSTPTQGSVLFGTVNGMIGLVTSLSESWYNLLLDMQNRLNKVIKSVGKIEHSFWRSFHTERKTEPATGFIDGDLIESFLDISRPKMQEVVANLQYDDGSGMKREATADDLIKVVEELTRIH
Protocol: FIG. 2A illustrates the volcano plot of differentially abundant proteins in response to Compound D treatment relative to the DMSO control. KG1 cells were treated with DMSO or 100 nM Compound D for 4 hours and subjected to TMT proteomics analysis. The X-axis denotes the log 2-fold change of Compound D versus the DMSO control for each protein. P-values were corrected for multiple hypothesis testing using the Benjamini-Hoschberg method to arrive at an adjusted-P-value (adj-P, also known as a false discovery rate). The y-axis denotes the −log 10 (adj-P) values indicating statistical significance such that proteins lying above the dotted red line are statistically significant findings with adjusted P-values<0.05. FIG. 2B illustrates the immunoblot analysis of KG1 and U937 cells treated with DMSO or Compound D for 4 hours. Where indicated, cells were pretreated with Bortezomib or MLN4924 for 30 minutes. FIGS. 2C and 2D illustrate the immunoblot analysis (FIG. 2C) and cell proliferation (FIG. 2D) of U937-Cas9 parental cells or cells stably transduced with lentiviral vectors expressing a non-targeting sgRNA (sgNT-1), a sgRNA targeting a non-coding region (sgNC-8), or a sgRNA targeting CRBN(sgCRBN-8). Cells were treated with DMSO or Compound D at indicated concentrations. FIGS. 2E and 2F illustrate the immunoblot analysis (left panel) and cell proliferation (right panel) of MOLM-13 (FIG. 2E) and OCI-AML2 (FIG. 2F) parental and CRBN−/− cells. Cells were treated with DMSO or Compound D at indicated concentrations. Results shown in all figure panels are representative of three biological replicates. Data in FIGS. 2D, 2E (right panel), and 2F (right panel) are shown as mean±SD, n=3 technical replicates.
FIG. 3A illustrates FLAG-HA tagged cereblon wild-type (FLAG-HA-CRBN) or Y384A/W386A mutant (FLAG-HA-YWAA) produced in 293FT CRBN−/− cells was used to capture V5 tagged GSPT1 (GSPT1-V5) and V5 tagged IKZF1 (IKZF1-V5) transiently expressed in 293FT CRBN−/− cells. […] FIG. 3B illustrates the surface representation of GSPT1 in complex with cereblon, DDB1 and Compound D, with DDB1 shown in purple, cereblon in blue, and GSPT1 in orange. The position of Compound D is shown with a white arrow. FIG. 3C illustrates the Fo-Fc omit electron density (green mesh) for Compound D (yellow sticks) contoured at 3.06. FIG. 3D illustrates GSPT1's interaction with cereblon is mediated by a β-hairpin loop. Hydrogen bond interactions between cereblon and the GPST1 β-hairpin are shown as yellow dashes. FIG. 3E illustrates details of the binding interface between cereblon and GSPT1. Compound D is represented as yellow sticks. Predicted polar interactions between Compound D and cereblon are shown as yellow dashes. FIG. 3F illustrates the immunoblot analysis of U937 parental cells or cells stably expressing HA-GSPT1-G575N. Cells were treated with DMSO or Compound D at the indicated concentrations. FIGS. 3G and 311 illustrate the immunoblot analysis (left panel) and cell proliferation (right panel) of MOLM-13 (FIG. 3G) and OCI-AML2 (FIG. 311) parental cells and cells stably expressing HA tagged GSPT1-G575N. Cells were treated with DMSO or Compound D at indicated concentrations.
Like all other cereblon modulators, Compound D contains a glutarimide ring (FIG. 1A) that can bind cereblon and redirect it to target neosubstrates for degradation. Thus, the effect of Compound D on the global proteome in AML cell line KG-1 was assessed using tandem mass tag (TMT) quantitative mass spectrometry.
Specifically, U937 cells stably expressing Cas9 were infected with lentiviral vectors constitutively expressing RFP and non-targeting or non-coding sgRNA (sgNT) controls, or sgRNAs targeting TSC1 or TSC2. Infected cells were selected with 1 μg/ml puromycin. […]

Ikaros = Ikaros (Homo sapiens, UniProt Q13422+Q96SW2); conditions: U937-Cas9; 18 hours
Sequence of Ikaros (Q96SW2 whole entry): as the sequence (Q96SW2 whole entry partner) above
Sequence of Ikaros (Q13422 whole entry): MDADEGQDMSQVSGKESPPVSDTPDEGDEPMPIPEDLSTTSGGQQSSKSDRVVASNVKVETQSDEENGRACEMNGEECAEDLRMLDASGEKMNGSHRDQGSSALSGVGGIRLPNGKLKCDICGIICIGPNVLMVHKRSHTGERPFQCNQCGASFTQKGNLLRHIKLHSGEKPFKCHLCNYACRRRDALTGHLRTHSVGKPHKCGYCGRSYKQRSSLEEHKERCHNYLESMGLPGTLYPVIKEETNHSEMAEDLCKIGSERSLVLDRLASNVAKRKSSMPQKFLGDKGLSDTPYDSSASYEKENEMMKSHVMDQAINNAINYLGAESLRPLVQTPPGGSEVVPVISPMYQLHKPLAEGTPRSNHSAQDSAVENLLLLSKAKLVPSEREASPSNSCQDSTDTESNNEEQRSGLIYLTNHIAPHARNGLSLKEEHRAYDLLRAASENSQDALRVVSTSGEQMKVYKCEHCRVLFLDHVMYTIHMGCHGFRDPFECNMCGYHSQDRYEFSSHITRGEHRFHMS
Sequence of Ikaros (Q16531 whole entry, further chain): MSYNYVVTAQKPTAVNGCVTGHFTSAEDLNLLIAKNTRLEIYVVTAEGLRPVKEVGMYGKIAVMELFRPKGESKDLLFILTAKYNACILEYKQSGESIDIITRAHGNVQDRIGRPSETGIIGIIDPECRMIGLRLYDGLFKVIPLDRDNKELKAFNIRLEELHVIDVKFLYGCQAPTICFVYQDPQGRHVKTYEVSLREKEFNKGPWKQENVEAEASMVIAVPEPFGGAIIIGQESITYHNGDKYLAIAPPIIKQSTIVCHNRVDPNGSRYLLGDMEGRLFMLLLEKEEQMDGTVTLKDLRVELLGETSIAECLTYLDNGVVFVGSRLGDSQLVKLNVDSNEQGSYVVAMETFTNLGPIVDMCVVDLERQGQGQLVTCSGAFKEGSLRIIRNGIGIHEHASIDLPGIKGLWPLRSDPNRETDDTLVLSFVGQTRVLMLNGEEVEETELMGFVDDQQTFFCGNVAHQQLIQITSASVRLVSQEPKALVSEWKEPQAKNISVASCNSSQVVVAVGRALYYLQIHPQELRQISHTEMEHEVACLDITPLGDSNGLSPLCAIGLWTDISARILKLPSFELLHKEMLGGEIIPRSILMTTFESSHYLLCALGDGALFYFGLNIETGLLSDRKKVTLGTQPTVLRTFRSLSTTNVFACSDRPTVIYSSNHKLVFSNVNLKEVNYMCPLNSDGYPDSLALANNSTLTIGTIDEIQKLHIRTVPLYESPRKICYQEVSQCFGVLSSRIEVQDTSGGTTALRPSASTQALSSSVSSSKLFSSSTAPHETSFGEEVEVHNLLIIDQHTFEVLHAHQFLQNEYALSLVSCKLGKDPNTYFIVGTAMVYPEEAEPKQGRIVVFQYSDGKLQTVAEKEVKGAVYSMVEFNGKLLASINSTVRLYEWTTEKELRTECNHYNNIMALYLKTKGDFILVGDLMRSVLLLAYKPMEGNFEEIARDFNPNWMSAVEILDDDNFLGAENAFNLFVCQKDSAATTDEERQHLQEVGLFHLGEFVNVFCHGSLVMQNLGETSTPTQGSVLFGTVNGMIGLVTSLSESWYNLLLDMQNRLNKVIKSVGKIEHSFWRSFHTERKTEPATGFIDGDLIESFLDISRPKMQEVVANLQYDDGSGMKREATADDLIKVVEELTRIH
Protocol: Cells were treated with DMSO or Compound D in the presence of cycloheximide. FIGS. 8D and 8E show the immunoblot analysis of U937-Cas9 cells stably expressing HA-tagged GSPT1 and the indicated sgRNAs. Cells were treated with DMSO, Compound D (FIG. 8D) or pomalidomide (POM; FIG. 8E) at the indicated concentrations for 18 hours.
To understand whether the effect of mTOR activation on Compound D-induced GSPT1 degradation can be ascribed to an increased rate of GSPT1 protein synthesis and/or a decreased rate of GSPT1 degradation, the change of GSPT1 protein half-life in response to TSC1 or TSC2 loss in the presence or absence of Compound D was determined.

| Compound | water uptake [1] | also measured |
| --- | --- | --- |
| O=C1CCC(N2Cc3cc(CNC(=O)C(F)(F)c4ccc(Cl)cc4)ccc3C2=O)C(=O)N1 (centres unmarked) [Form A, 2-(4-chlorophenyl)-N-((2-(2,6-dioxopiperidin-3-yl)-1-oxoisoindolin-5-yl)methyl)-2,2-difluoroacetamide] | about 1.2 % w/w |  |
| O=C1CCC(N2Cc3cc(CNC(=O)C(F)(F)c4ccc(Cl)cc4)ccc3C2=O)C(=O)N1 (centres unmarked) [Form B, 2-(4-chlorophenyl)-N-((2-(2,6-dioxopiperidin-3-yl)-1-oxoisoindolin-5-yl)methyl)-2,2-difluoroacetamide] | about 1.4 % w/w |  |
| O=C1CCC(N2Cc3cc(CNC(=O)C(F)(F)c4ccc(Cl)cc4)ccc3C2=O)C(=O)N1 (centres unmarked) [Form C, 2-(4-chlorophenyl)-N-((2-(2,6-dioxopiperidin-3-yl)-1-oxoisoindolin-5-yl)methyl)-2,2-difluoroacetamide] | about 0.6 % w/w |  |
| C[C@@H]1C[C@@H]([C@H](O)CC2CC(=O)NC(=O)C2)C(=O)[C@@H](C)C1 [cycloheximide, reference compound] |  | protein level of GSPT1, cycloheximide treatment alone (GSPT1): did not show much effect on the protein level of GSPT1 |
| Nc1cccc2c1C(=O)N(C1CCC(=O)NC1=O)C2=O (centres unmarked) [pomalidomide] |  | degradation of Ikaros under TSC1 or TSC2 deficiency (Ikaros): did not affect the degradation of Ikaros by pomalidomide |
